Measurements: ChEMBL document CHEMBL5338751, “Discovery of the First-in-Class Intestinal Restricted FXR and FABP1 Dual Modulator ZLY28 for the Treatment of Nonalcoholic Fatty Liver Disease” (J Med Chem, 2023)
Activity calls are given as the source filed them. The rule behind the calls is not given here.

Key:
Bile acid receptor = molecular target: T1, Bile acid receptor (Homo sapiens, UniProt Q96RI1); assay: Agonist activity at FXR-LBD (unknown origin) using fluorescein-coactivator peptide incubated for 3 hrs by TR-FRET assay
T1 sequence (Q96RI1 whole entry): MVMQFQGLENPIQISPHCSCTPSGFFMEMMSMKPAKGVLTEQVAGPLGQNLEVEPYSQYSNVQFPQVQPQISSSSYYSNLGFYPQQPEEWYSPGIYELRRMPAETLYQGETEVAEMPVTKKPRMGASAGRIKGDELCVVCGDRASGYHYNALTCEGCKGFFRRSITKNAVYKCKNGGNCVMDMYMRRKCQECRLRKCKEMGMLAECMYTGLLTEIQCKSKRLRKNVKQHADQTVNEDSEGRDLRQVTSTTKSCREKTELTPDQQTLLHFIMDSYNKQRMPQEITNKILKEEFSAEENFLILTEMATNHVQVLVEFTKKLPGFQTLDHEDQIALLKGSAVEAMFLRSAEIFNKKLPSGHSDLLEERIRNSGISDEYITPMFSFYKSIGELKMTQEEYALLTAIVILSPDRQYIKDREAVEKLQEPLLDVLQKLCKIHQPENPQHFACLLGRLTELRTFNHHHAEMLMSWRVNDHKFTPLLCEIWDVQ

[1] = molecular target: Fatty acid-binding protein, heart (Homo sapiens, UniProt P05413); assay: Displacement of 8-anilino-1-naphthalene-sulfonic acid from FABP3 (unknown origin) incubated for 3 mins by fluorescence based assay
[2] = molecular target: Fatty acid-binding protein, adipocyte (Homo sapiens, UniProt P15090); assay: Displacement of 8-anilino-1-naphthalene-sulfonic acid from FABP4 (unknown origin) incubated for 3 mins by fluorescence based assay
[3] = Drug concentration in C57BL/6 mouse plasma at 20 mg/kg, po administered for 5 days and measured after 1 hr post final dose by LC-MS analysis; type: ADME, organism-based; conditions: time 5 day
[4] = molecular target: T2, Bile acid receptor (Mus musculus) (UniProt Q60641); assay: Activation of FXR in C57BL/6 mouse ileum assessed as upregulation of SHP gene expression at 20 mg/kg, po administered for 5 days and measured after 1 hr post final dose by RT-PCR analysis; type: organism-based; conditions: filed as activator, time 5.0 day
T2 sequence (whole entry): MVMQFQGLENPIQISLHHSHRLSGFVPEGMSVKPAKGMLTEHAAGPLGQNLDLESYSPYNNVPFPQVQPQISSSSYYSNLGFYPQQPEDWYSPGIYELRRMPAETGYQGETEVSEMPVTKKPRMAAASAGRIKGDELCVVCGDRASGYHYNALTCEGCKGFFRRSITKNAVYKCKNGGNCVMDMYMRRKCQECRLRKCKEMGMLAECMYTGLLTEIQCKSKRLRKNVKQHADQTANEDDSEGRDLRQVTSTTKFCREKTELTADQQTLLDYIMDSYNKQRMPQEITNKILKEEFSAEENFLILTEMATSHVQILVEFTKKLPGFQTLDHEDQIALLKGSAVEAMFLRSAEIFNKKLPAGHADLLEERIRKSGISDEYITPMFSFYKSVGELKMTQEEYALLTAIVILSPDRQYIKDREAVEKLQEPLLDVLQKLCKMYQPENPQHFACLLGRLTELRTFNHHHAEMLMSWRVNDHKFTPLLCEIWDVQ

Mus musculus = assay: Anti-NASH activity in western diet and CCl4-induced nonalcoholic steatohepatitis C57BL/6 mouse assessed as downregulation of F4/80 expression level at 20 mg/kg, po administered for 12 weeks starting from week 8 and change in dose for every 5 days; type: functional, organism-based; conditions: time 4.0 weeks
[5] = molecular target: T2, Bile acid receptor (Mus musculus); assay: In vivo activation of FXR pathway in western diet and CCl4-induced nonalcoholic steatohepatitis C57BL/6 mouse model assessed as downregulation of CYP7A1 mRNA level in […] at 20 mg/kg, po administered for 12 weeks starting from week 8 and change in dose for every 5 days; type: functional, organism-based; conditions: time 4.0 weeks
[6] = molecular target: T2, Bile acid receptor (Mus musculus); assay: In vivo activation of FXR pathway in western diet and CCl4-induced nonalcoholic steatohepatitis C57BL/6 mouse model assessed as upregulation of FGF15 gene expression in ileum at 20 mg/kg, po administered for 12 weeks starting from week 8 and change in dose for every 5 days by RT-PCR analysis; type: functional, organism-based; conditions: time 4.0 weeks
[7] = Subacute toxicity in ICR mouse assessed as abnormal behaviour at 500 mg/kg/day, po administered for 14 days; type: organism-based; conditions: in vivo, 336 h, time 14 day

Sequence of Fatty acid-binding protein, heart (P05413 whole entry): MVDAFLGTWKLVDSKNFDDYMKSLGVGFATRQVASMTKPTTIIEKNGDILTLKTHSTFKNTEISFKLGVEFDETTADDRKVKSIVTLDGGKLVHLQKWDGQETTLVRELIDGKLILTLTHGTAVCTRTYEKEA
Sequence of Fatty acid-binding protein, adipocyte (P15090 whole entry): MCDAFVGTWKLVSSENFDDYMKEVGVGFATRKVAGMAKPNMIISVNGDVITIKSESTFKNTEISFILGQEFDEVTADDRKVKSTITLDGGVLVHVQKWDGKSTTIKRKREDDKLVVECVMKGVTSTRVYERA

O=C(O)C1(c2cccc(-c3ccc(OCc4c(-c5c(Cl)cccc5Cl)noc4C4CC4)cc3)c2)CC1
EC50 (Bile acid receptor): 0.143 µM
IC50 [1]: > 30 µM
IC50 [2]: 6.3 µM
concentration at 120 h [3]: 0.029 µg/mL
Activity [4]: Active
Activity (Mus musculus): Active
Activity [5]: Active
Activity [6]: Active
Activity [7]: Non-Toxic
